{"source": "patent US20220023269A1", "about": "“Methods Of Treating Diabetes In Severe Insulin-Resistant Diabetic Subjects” (Balticgruppen Bio AB, priority 2018, published 2022)", "key": {"[1]": {"tested_on": "Wi-38 human lung fibroblast cells", "assay": "Determination of cellular ATP content", "format": "cell-based", "conditions": "16 hours; dose-dependent", "method": "Wi-38 human lung fibroblast cells were stimulated with test material for 16 hours. Thereafter ATP content were determined with the ATP bioluminescence assay kit HS II (Roche Applied Science #11699709001) according to manufacturer's recommendations. The ATP data were normalised to cellular protein determined using BCA protein assay kit (Pierce #23225)."}, "AMPK in HeLa cells": {"tested_on": "AMPK in HeLa cells", "assay": "AMPK activation assay in HeLa cells (LKB1 null)", "format": "cell-based, human", "conditions": "LKB1 null cells; 2.5, 5 or 10 μM, 4 hours", "method": "(§1) All cell lines were lysed in 0.1 M Tris-HCl, pH 6.8, 2% SDS, 10 mM sodium fluoride (SIGMA #S7920), 10 mM β-glycerophosphate (SIGMA #G6376), and 1 mM sodium vanadate (SIGMA #72060) and supernatant collected after 1 minute at 14,000 rpm. Islets (human and mouse) were lysed in 0.1 M Tris-HCl, pH 6.8, 2% SDS, protease inhibitor (Roche #04 693 124 001) and phosphatase inhibitor (Roche #04 906 837 001). Right calf muscle, heart, iWAT, and interscapular BAT was crushed in a pestle using liquid nitrogen and homogenised in ice cold RIPA buffer (150 mM sodium chloride (SIGMA #S7653), 1.0% NP40 (USB), 0.5% sodium deoxycholate (SIGMA #D6750), 0.1% SDS, 50 mM Tris pH 8.0, 20 mM sodium pyrophosphate (SIGMA #71515), 10 mM sodium fluoride, 10 mM β-glycerolphosphate, 1 mM sodium vanadate and protease inhibitor cocktail (Roche #04693124001), 1 tablet/10 ml lysis buffer). The supernatant was collected after 2 min at 14,000 rpm. This procedure was repeated until all fat was eliminated and the supernatant was clear, at 4° C. Samples were analysed on 4-15% polyacrylamide gels. Values were normalised toward AMPKα, β-Actin, GAPDH or the respective non-phosphorylated counterpart.\n(§2) Table 3 contains origin of cell lines, growth conditions and settings for activation of AMPK via the test material. […]"}, "[2]": {"tested_on": "AMPK in human skeletal myotubes", "assay": "AMPK activation assay in human skeletal myotubes", "format": "cell-based", "conditions": "cells preferentially expressing β2 subunit", "method": "as §1, §2"}, "[3]": {"tested_on": "AMPK in human hepatocytes", "assay": "AMPK activation assay in human hepatocytes", "format": "cell-based", "conditions": "cells preferentially expressing β2 subunit", "method": "as §1, §2"}, "hIAPPtg DIO mice": {"tested_on": "hIAPPtg DIO mice", "assay": "Prevention of diabetes in hIAPPtg DIO mice (oral gavage, 6 w)", "format": "in vivo", "conditions": "100 mg/kg/day gavage, 6 w HFD"}, "[4]": {"tested_on": "obese, diabetic hIAPPtg mice", "assay": "Diet switch in hIAPPtg mice: HFD 9 w then test material-HFD (2 mg/g) 7 w", "format": "in vivo", "method": "10-11 weeks old male hIAPPtg; CBA mice and wild type littermates were fed HFD for 9 weeks. After 9 weeks mice were either sacrificed or randomised into two groups either continuing on HFD or switched to test material-HFD (2 mg/g) for an additional 7 weeks.\nFood intake was measured weekly by giving each cage 200 g pellet. After one week, the amount of pellets consumed were calculated and adjusted according to the number of animals/cage. Body weight was measured weekly. Body composition was assessed using EchoMRI.\nIslets amyloid was quantification was done on pancreatic tissues isolated from hIAPPtg mice on HFD for 16 weeks (n=7 mice/n=69 islets) and hIAPPtg mice on HFD for 9 weeks then switched to test material-HFD (2 mg/g) for 7 weeks (n=5 mice/n=48 islets). Isolated pancreases was direct frozen, sectioned, and amyloid content quantified by staining with Thioflavin-S as previously described (Reference 2). For ex vivo analyses, islets were isolated by collagenase digestion of the pancreas (Reference 1) and cultured in RPMI medium 1640 (GIBCO #11879-0) supplemented with 11.1 or 22.2 mM glucose (GIBCO #A24940-01), 1% fetal bovine serum (GIBCO #10500), 50 U; μg/ml Pen/Strep (Gibco #15140-122), 10 mM Hepes (Umeå University, Laboratory medicine), 1 mM sodium pyruvate (GIBCO #11360-039) and 0.1% 2-Mercaptoethanol (Sigma #M3148). 0, 2.5, 5.0, and 10 μM test material were added from day 0 of culture. For assessing the effect of autophagy inhibition, 3-Methyladenine (3-MA, Aldrich #M9281), 5 μM, was added from day 0 of culture in combination with test material, 5 μM. The control contained DMSO 1:2000. Medium and compounds were changed every second day. After 92 hours of treatment islets were embedded, sectioned and amyloid content quantified by staining with Thioflavin-S as previously described (Reference 2). A minimum of 3 independent experiments was evaluated."}, "[5]": {"tested_on": "AMPK in rat insulinoma INS-1 cells", "assay": "AMPK activation in INS-1 insulinoma cells", "format": "cell-based", "conditions": "2.5, 5, 10 μM, 2 hours", "method": "as §1, §2"}, "AMPK in human islets": {"tested_on": "AMPK in human islets", "assay": "AMPK activation in human islets", "format": "cell-based", "conditions": "1.0, 2.5, 5.0, 10 μM, 4 hours", "method": "as §1, §2"}}, "data": [{"smiles": "O=C(Nc1nc(=O)n(Cc2ccc(Cl)cc2)s1)c1ccc(Cl)cc1", "note": "[test material, 4-chloro-N-[2-[(4-chlorophenyl)methyl]-3-oxo-1,2,4-thiadiazol-5-yl]benzamide]", "values": [{"measurement": "ATP/protein ratio", "setting": "[1]", "value": "increased"}, {"measurement": "basal levels of pAMPK and pACC", "setting": "AMPK in HeLa cells", "value": "failed to increase"}, {"measurement": "pAMPK", "setting": "[2]", "value": "increased pAMPK"}, {"measurement": "pAMPK", "setting": "[3]", "value": "increased pAMPK"}, {"measurement": "HOMA-IR and Matsuda index (systemic insulin resistance)", "setting": "hIAPPtg DIO mice", "value": "suppressed the development of systemic insulin resistance"}, {"measurement": "i.p. and oral glucose-tolerance tests", "setting": "hIAPPtg DIO mice", "value": "prevented the development of glucose intolerance and compensatory hyperinsulinemia"}, {"measurement": "6 h fasted blood glucose", "setting": "hIAPPtg DIO mice; vs vehicle", "value": "averted the increase"}, {"measurement": "6 h fasted plasma insulin levels", "setting": "hIAPPtg DIO mice; vs vehicle", "value": "averted the increase"}, {"measurement": "body fat", "setting": "[4]; 2 mg/g", "value": "induced body weight and body fat loss"}, {"measurement": "body weight", "setting": "[4]; 2 mg/g", "value": "induced body weight and body fat loss"}, {"measurement": "amount of islet amyloid formed", "setting": "[4]; 2 mg/g for 7 w, vs continued HFD", "value": "significantly reduced"}, {"measurement": "established hyperglycemia (fasted blood glucose)", "setting": "[4]; 2 mg/g, 6 w after the switch", "value": "reverted"}, {"measurement": "established hyperinsulinemia (fasted insulin)", "setting": "[4]; 2 mg/g, 6 w after the switch", "value": "reverted"}, {"measurement": "established insulin resistance (HOMA-IR)", "setting": "[4]; 2 mg/g, 6 w after the switch", "value": "reverted"}, {"measurement": "pAMPKα", "setting": "[5]", "value": "directly increased pAMPKα"}, {"measurement": "pAMPKα", "setting": "AMPK in human islets", "value": "directly increased pAMPKα"}]}]}
